“And” between values parts separate entries of the source, which are not always exact repeats. Equal values may be shown once.
Tested on: 377384-186-R-J1-PDC complex spheroid viability
Assay: Anticancer human tumor 377384-186-R-J1-PDC patient-derived pancreatic carcinoma cell line growth inhibition [RAS]
Settings: for viability, T/C: stronger effect = lower value
In short: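 Agents were tested in combination matrices in half-log decrements from a top concentration at or near clinical Cmax (10 microM if undetermined). Targets were multi-cell spheroids of tumour lines plus HUVEC and MSC stromal cells.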

[1] = curve of first compound, second compound 0.0316 µM
[2] = curve of first compound, second compound 0.1 µM
[3] = curve of first compound, second compound 0.316 µM
[4] = curve of first compound, second compound 1 µM
[5] = curve of first compound, second compound 3.16 µM
[6] = curve of first compound, second compound 10 µM
[7] = second compound 0.0316 µM, first compound 0.0316 µM
[8] = second compound 0.0316 µM, first compound 0.1 µM
[9] = second compound 0.0316 µM, first compound 0.316 µM
[10] = second compound 0.0316 µM, first compound 1 µM
[11] = second compound 0.0316 µM, first compound 3.16 µM
[12] = second compound 0.0316 µM, first compound 10 µM
[13] = second compound 0.1 µM, first compound 0.0316 µM
[14] = second compound 0.1 µM, first compound 0.1 µM
[15] = second compound 0.1 µM, first compound 0.316 µM
[16] = second compound 0.1 µM, first compound 1 µM
[17] = second compound 0.1 µM, first compound 3.16 µM
[18] = second compound 0.1 µM, first compound 10 µM
[19] = second compound 0.316 µM, first compound 0.0316 µM
[20] = second compound 0.316 µM, first compound 0.1 µM
[21] = second compound 0.316 µM, first compound 0.316 µM
[22] = second compound 0.316 µM, first compound 1 µM
[23] = second compound 0.316 µM, first compound 3.16 µM
[24] = second compound 0.316 µM, first compound 10 µM
[25] = second compound 1 µM, first compound 0.0316 µM
[26] = second compound 1 µM, first compound 0.1 µM
[27] = second compound 1 µM, first compound 0.316 µM
[28] = second compound 1 µM, first compound 1 µM
[29] = second compound 1 µM, first compound 3.16 µM
[30] = second compound 1 µM, first compound 10 µM
[31] = second compound 3.16 µM, first compound 0.0316 µM
[32] = second compound 3.16 µM, first compound 0.1 µM
[33] = second compound 3.16 µM, first compound 0.316 µM
[34] = second compound 3.16 µM, first compound 1 µM
[35] = second compound 3.16 µM, first compound 3.16 µM
[36] = second compound 3.16 µM, first compound 10 µM
[37] = second compound 10 µM, first compound 0.0316 µM
[38] = second compound 10 µM, first compound 0.1 µM
[39] = second compound 10 µM, first compound 0.316 µM
[40] = second compound 10 µM, first compound 1 µM
[41] = second compound 10 µM, first compound 3.16 µM
[42] = second compound 10 µM, first compound 10 µM
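Further: spheroids exposed to compounds for seven days before readout.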

O=C(c1ccc(F)c(F)c1Nc1ccc(I)cc1F)N1CC(O)([C@@H]2CCCCN2)C1 + CCn1c(-c2cccnc2C(C)OC)c2c3cc(ccc31)N1CCOC(CC(NC(=O)C(C(C)C)N(C)C(=O)C3(F)CCN(C(=O)C#CC(C)(C)N(C)C)CC3)C(=O)N3CCCC(N3)C(=O)OCC(C)(C)C2)C1
IC50 (curve of first compound, second compound 0.000949 µM): 0.0332 µM | IC50 (curve of first compound, second compound 0.003 µM): 0.0448 µM | IC50 (curve of first compound, second compound 0.00949 µM): 0.0286 µM | IC50 (curve of first compound, second compound 0.03 µM): 0.036 µM | IC50 (curve of first compound, second compound 0.0949 µM): 0.0299 µM | IC50 (curve of first compound, second compound 0.3 µM): 0.0168 µM | viability, T/C (second compound 0.000949 µM, first compound 0.00316 µM): 87.5% | viability, T/C (second compound 0.000949 µM, first compound 0.01 µM): 85.8% | viability, T/C (second compound 0.000949 µM, first compound 0.0316 µM): 49.2% | viability, T/C (second compound 0.000949 µM, first compound 0.1 µM): 17.4% | viability, T/C (second compound 0.000949 µM, first compound 0.316 µM): 1.96% | viability, T/C (second compound 0.000949 µM, first compound 1 µM): 1.6% | viability, T/C (second compound 0.003 µM, first compound 0.00316 µM): 103% | viability, T/C (second compound 0.003 µM, first compound 0.01 µM): 89.2% | viability, T/C (second compound 0.003 µM, first compound 0.0316 µM): 63.1% | viability, T/C (second compound 0.003 µM, first compound 0.1 µM): 22.7% | viability, T/C (second compound 0.003 µM, first compound 0.316 µM): 2.13% | viability, T/C (second compound 0.003 µM, first compound 1 µM): 0.43% | viability, T/C (second compound 0.00949 µM, first compound 0.00316 µM): 98.8% | viability, T/C (second compound 0.00949 µM, first compound 0.01 µM): 75% | viability, T/C (second compound 0.00949 µM, first compound 0.0316 µM): 50.3% | viability, T/C (second compound 0.00949 µM, first compound 0.1 µM): 19.1% | viability, T/C (second compound 0.00949 µM, first compound 0.316 µM): 1.75% | viability, T/C (second compound 0.00949 µM, first compound 1 µM): 0.87% | viability, T/C (second compound 0.03 µM, first compound 0.00316 µM): 96.2% | viability, T/C (second compound 0.03 µM, first compound 0.01 µM): 77.8% | viability, T/C (second compound 0.03 µM, first compound 0.0316 µM): 57.3% | viability, T/C (second compound 0.03 µM, first compound 0.1 µM): 18.9% | viability, T/C (second compound 0.03 µM, first compound 0.316 µM): 4.23% | viability, T/C (second compound 0.03 µM, first compound 1 µM): 0.57% | viability, T/C (second compound 0.0949 µM, first compound 0.00316 µM): 85.5% | viability, T/C (second compound 0.0949 µM, first compound 0.01 µM): 77.8% | viability, T/C (second compound 0.0949 µM, first compound 0.0316 µM): 47.5% | viability, T/C (second compound 0.0949 µM, first compound 0.1 µM): 17.7% | viability, T/C (second compound 0.0949 µM, first compound 0.316 µM): 1.32% | viability, T/C (second compound 0.0949 µM, first compound 1 µM): 0.36% | viability, T/C (second compound 0.3 µM, first compound 0.00316 µM): 77.1% | viability, T/C (second compound 0.3 µM, first compound 0.01 µM): 60.6% | viability, T/C (second compound 0.3 µM, first compound 0.0316 µM): 36.9% | viability, T/C (second compound 0.3 µM, first compound 0.1 µM): 10.7% | viability, T/C (second compound 0.3 µM, first compound 0.316 µM): 0.96% | viability, T/C (second compound 0.3 µM, first compound 1 µM): 0.43%

CC(Nc1ccc2c(c1)OCCn1cc(N3C(=O)OCC3C(F)F)nc1-2)C(N)=O (stereo unspecified)
viability, T/C (compound 0.0316 µM): 76% [middle of 4 runs] | viability, T/C (compound 0.1 µM): 63.8% [middle of 4 runs] | viability, T/C (compound 0.316 µM): 55.8% [middle of 4 runs] | viability, T/C (compound 1 µM): 47.9% and 40.3% (2×) and 48.2% | viability, T/C (compound 3.16 µM): 33.7% [middle of 4 runs] | viability, T/C (compound 10 µM): 30.7% [middle of 4 runs] | IC50 (curve of compound): 476 nM [middle of 4 runs]

Cc1nc(N2CCC3(CC2)COC(C)C3N)c(CO)nc1Sc1ccnc(N)c1Cl (stereo unspecified) + C#Cc1c(F)ccc2cc(O)cc(-c3ncc4c(N5CC6CCC(C5)N6)nc(OCC56CCCN5CC(F)C6)nc4c3F)c12
IC50 [1]: < 0.0316 µM | IC50 [2]: < 0.0316 µM | IC50 [3]: < 0.0316 µM | IC50 [4]: < 0.0316 µM | IC50 [5]: < 0.0316 µM | IC50 [6]: < 0.0316 µM | viability, T/C [7]: 12.6% | viability, T/C [8]: 5.6% | viability, T/C [9]: 3.15% | viability, T/C [10]: 1.95% | viability, T/C [11]: 1.57% | viability, T/C [12]: 0.92% | viability, T/C [13]: 5.2% | viability, T/C [14]: 3.07% | viability, T/C [15]: 1.59% | viability, T/C [16]: 0.92% | viability, T/C [17]: 0.97% | viability, T/C [18]: 0.63% | viability, T/C [19]: 2.68% | viability, T/C [20]: 1.49% | viability, T/C [21]: 0.84% | viability, T/C [22]: 0.98% | viability, T/C [23]: 0.78% | viability, T/C [24]: 0.67% | viability, T/C [25]: 1.74% | viability, T/C [26]: 1.54% | viability, T/C [27]: 1.31% | viability, T/C [28]: 0.99% | viability, T/C [29]: 0.81% | viability, T/C [30]: 0.51% | viability, T/C [31]: 1.99% | viability, T/C [32]: 1.51% | viability, T/C [33]: 1.34% | viability, T/C [34]: 0.77% | viability, T/C [35]: 0.8% | viability, T/C [36]: 0.33% | viability, T/C [37]: 1.85% | viability, T/C [38]: 0.91% | viability, T/C [39]: 0.69% | viability, T/C [40]: 0.44% | viability, T/C [41]: 0.38% | viability, T/C [42]: 0.14%

C=CC(=O)Nc1cc(Nc2nccc(-c3cn(C)c4ccccc34)n2)c(OC)cc1N(C)CCN(C)C
viability, T/C (compound 0.00316 µM): 95.6% [middle of 4 runs] | viability, T/C (compound 0.01 µM): 97.8% [middle of 4 runs] | viability, T/C (compound 0.0316 µM): 92.6% [middle of 4 runs] | viability, T/C (compound 0.1 µM): 87.7% [middle of 4 runs] | viability, T/C (compound 0.316 µM): 64.9% [middle of 4 runs] | viability, T/C (compound 1 µM): 40.4% [middle of 4 runs] | IC50 (curve of compound): 639 nM [middle of 4 runs]

C[C@@H](NC(=O)c1ncnc(N)c1Cl)c1ncc(C(=O)Nc2cc(C(F)(F)F)c(Cl)cn2)s1
viability, T/C (compound 0.0316 µM): 95.1% [middle of 4 runs] | viability, T/C (compound 0.1 µM): 99.2% [middle of 4 runs] | viability, T/C (compound 1 µM): 117% (2×) and 109% and 132% | IC50 (curve of compound): > 10 µM

CC(=O)OC12COC1CC(O)C1(C)C(=O)C(O)C3=C(C)C(OC(=O)C(O)C(NC(=O)OC(C)(C)C)c4ccccc4)CC(O)(C(OC(=O)c4ccccc4)C21)C3(C)C (stereo unspecified) + C#Cc1c(F)ccc2cc(O)cc(-c3ncc4c(N5CC6CCC(C5)N6)nc(OCC56CCCN5CC(F)C6)nc4c3F)c12
IC50 [1]: < 0.0316 µM | IC50 [2]: < 0.0316 µM | IC50 [3]: < 0.0316 µM | IC50 [4]: < 0.0316 µM | IC50 [5]: < 0.0316 µM | IC50 [6]: < 0.0316 µM | viability, T/C [7]: 2.38% | viability, T/C [8]: 3.09% | viability, T/C [9]: 3.14% | viability, T/C [10]: 3.55% | viability, T/C [11]: 3.94% | viability, T/C [12]: 3.06% | viability, T/C [13]: 2.23% | viability, T/C [14]: 2.57% | viability, T/C [15]: 2.12% | viability, T/C [16]: 1.89% | viability, T/C [17]: 1.87% | viability, T/C [18]: 3.18% | viability, T/C [19]: 2.05% | viability, T/C [20]: 2.18% | viability, T/C [21]: 2% | viability, T/C [22]: 2.01% | viability, T/C [23]: 2.08% | viability, T/C [24]: 1.78% | viability, T/C [25]: 1.73% | viability, T/C [26]: 1.59% | viability, T/C [27]: 1.53% | viability, T/C [28]: 1.76% | viability, T/C [29]: 1.09% | viability, T/C [30]: 1.72% | viability, T/C [31]: 1.58% | viability, T/C [32]: 1.73% | viability, T/C [33]: 1.51% | viability, T/C [34]: 1.74% | viability, T/C [35]: 1.58% | viability, T/C [36]: 1.95% | viability, T/C [37]: 0.77% | viability, T/C [38]: 0.5% | viability, T/C [39]: 0.68% | viability, T/C [40]: 0.75% | viability, T/C [41]: 0.42% | viability, T/C [42]: 0.94%

CC(=O)OC12COC1CC(O)C1(C)C(=O)C(O)C3=C(C)C(OC(=O)C(O)C(NC(=O)OC(C)(C)C)c4ccccc4)CC(O)(C(OC(=O)c4ccccc4)C21)C3(C)C (stereo unspecified)
viability, T/C (compound 0.0316 µM): 9.48% [middle of 4 runs] | viability, T/C (compound 0.1 µM): 12% and 10.2% (2×) and 9.32% | viability, T/C (compound 0.316 µM): 11.3% [middle of 4 runs] | viability, T/C (compound 1 µM): 12.8% [middle of 4 runs] | viability, T/C (compound 3.16 µM): 14.2% [middle of 4 runs] | viability, T/C (compound 10 µM): 13.2% [middle of 4 runs] | IC50 (curve of compound): < 0.0316 µM

Reference: PubChem BioAssay AID2060903 (Molecular Pharmacology Branch, DTP, NCI, 2025)
